Test results taken from paper PMC7377239, “Cardiovascular Effects of Polychlorinated Biphenyls and Their Major Metabolites” (Environmental Health Perspectives, 2020).
Structures can show the parent of a compound that is named as a salt.

Legend:
[1] = test system: iCell endothelial cells (human iPSC-derived ECs); assay: Tube formation (tubulogenesis) assay in iCell endothelial cells, 18 h; assay type: cell-based; conditions: Homo sapiens, Endothelial cell, endothelial cells (endo), 18 hr
In short: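 Tube formation was measured by calcein AM imaging after overnight compound exposure (37°C, 0.5% DMSO vehicle) of human iPSC-derived ECs, 7,500/well, on reduced-growth-factor Geltrex in starvation medium. Vehicle-normalized data fitted to four-parameter logistic; POD set at one vehicle SD; without response, 100 μM taken as NOAEL.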

[2] = test system: iCell endothelial cells (human iPSC-derived ECs); assay: High-content imaging cytotoxicity in iCell endothelial cells, 24 h; assay type: cell-based; conditions: Homo sapiens, Endothelial cell, endothelial cells (endo), 24 hr
In short: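 Readouts were vehicle-normalised and fitted to a four-parameter logistic model. POD was set at one SD beyond 0.5% DMSO control means, and 100 µM was assigned when no response was seen. Cells were monolayers of iCell endothelial cells imaged after 24 h compound exposure using nuclear, mitochondrial and calcein dyes.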

[3] = tube formation mtl, read-out: POD endo.mtl.18hr
[4] = tube formation tlps, read-out: POD endo.tlps.18hr
[5] = tube formation tta, read-out: POD endo.tta.18hr
[6] = tube formation ttl, read-out: POD endo.ttl.18hr
[7] = cyto, read-out: POD endo.cyto.24hr
[8] = mito, read-out: POD endo.mito.24hr
[9] = mitoint, read-out: POD endo.mitoint.24hr
[10] = nma, read-out: POD endo.nma.24hr

Structure (SMILES)	minimal effective concentration [1, 3]	minimal effective concentration [1, 4]	minimal effective concentration [1, 5]	minimal effective concentration [1, 6]	minimal effective concentration [2, 7]	minimal effective concentration [2, 8]	minimal effective concentration [2, 9]	minimal effective concentration [2, 10]	minimal effective concentration ([2]; tc, read-out: POD endo.tc.24hr)
Oc1ccc(-c2ccc(Cl)cc2)cc1 [4'-OH-PCB 3]	1.21 µM	0.19 µM	1.16 µM	1.12 µM	41.1 µM	41.1 µM	100 µM	100 µM	52 µM
O=S(=O)(O)Oc1cc(Cl)c(-c2cc(Cl)ccc2Cl)cc1Cl [4-PCB 52 sulfate]	7.44 µM	5.74 µM	8.83 µM	9.64 µM	41.2 µM	41.2 µM	100 µM	100 µM	50.3 µM
Oc1ccccc1-c1ccc(Cl)cc1 [2'-OH-PCB 3]	13.4 µM	9.27 µM	29.9 µM	23.1 µM	44.3 µM	44.3 µM	100 µM	1.82 µM	68.2 µM
O=S(=O)(O)Oc1ccc(-c2ccc(Cl)cc2)cc1 [4'-PCB 3 sulfate]	4.33 µM	11.7 µM	16.8 µM	11 µM	100 µM	100 µM	100 µM	100 µM	100 µM
